Assays:
[1] = refractive index (Na D-line) (dimensionless); settings: 101.33 kPa, Liquid, Standard Abbe refractometry
[2] = Liquid, Vibrating tube method

NCCN [ethane-1,2-diamine]
[1]
Settings | refractive index
293.15 K | 1.45676
298.15 K | 1.45453

[2]
Settings | mass density [kg/m3]
293.15 K, 200 kPa | 898
293.15 K, 2500 kPa | 899
293.15 K, 5100 kPa | 900
293.15 K, 10000 kPa | 903
293.15 K, 15400 kPa | 905
293.15 K, 19800 kPa | 907
293.15 K, 25100 kPa | 909
293.15 K, 30200 kPa | 911
298.15 K, 101.33 kPa | 895.323
303.15 K, 300 kPa | 890
303.15 K, 2500 kPa | 891
303.15 K, 5000 kPa | 892
303.15 K, 10200 kPa | 893
303.15 K, 15000 kPa | 896
303.15 K, 20500 kPa | 898
303.15 K, 25100 kPa | 900
303.15 K, 30100 kPa | 902
313.15 K, 300 kPa | 880
313.15 K, 2500 kPa | 880
313.15 K, 5100 kPa | 882
313.15 K, 10000 kPa | 884
313.15 K, 15100 kPa | 887
313.15 K, 20100 kPa | 889
313.15 K, 25400 kPa | 892
313.15 K, 30400 kPa | 894
323.15 K, 200 kPa | 870
323.15 K, 2500 kPa | 870
323.15 K, 5100 kPa | 872
323.15 K, 10000 kPa | 875
323.15 K, 15000 kPa | 878
323.15 K, 19900 kPa | 880
323.15 K, 25100 kPa | 882
323.15 K, 29700 kPa | 885
333.15 K, 200 kPa | 860
333.15 K, 2500 kPa | 861
333.15 K, 5000 kPa | 863
333.15 K, 10000 kPa | 866
333.15 K, 15000 kPa | 868
333.15 K, 20000 kPa | 871
333.15 K, 25000 kPa | 874
333.15 K, 30000 kPa | 876
343.15 K, 200 kPa | 850
343.15 K, 2500 kPa | 852
343.15 K, 5100 kPa | 853
343.15 K, 10000 kPa | 856
343.15 K, 15000 kPa | 860
343.15 K, 20000 kPa | 862
343.15 K, 25100 kPa | 865
343.15 K, 30100 kPa | 867
353.15 K, 200 kPa | 840
353.15 K, 2500 kPa | 842
353.15 K, 5000 kPa | 844
353.15 K, 10200 kPa | 847
353.15 K, 15100 kPa | 850
353.15 K, 20000 kPa | 853
353.15 K, 25100 kPa | 856
353.15 K, 30100 kPa | 859
363.15 K, 200 kPa | 830
363.15 K, 2600 kPa | 832
363.15 K, 5100 kPa | 834
363.15 K, 10100 kPa | 838
363.15 K, 15000 kPa | 840
363.15 K, 20100 kPa | 844
363.15 K, 25600 kPa | 847
363.15 K, 30000 kPa | 850
373.15 K, 200 kPa | 820
373.15 K, 2500 kPa | 822
373.15 K, 5100 kPa | 825
373.15 K, 10100 kPa | 828
373.15 K, 15000 kPa | 831
373.15 K, 20100 kPa | 835
373.15 K, 25100 kPa | 838
373.15 K, 30200 kPa | 841
383.15 K, 200 kPa | 810
383.15 K, 2500 kPa | 813
383.15 K, 5200 kPa | 815
383.15 K, 10000 kPa | 818
383.15 K, 15200 kPa | 822
383.15 K, 20500 kPa | 826
383.15 K, 25000 kPa | 829
383.15 K, 30300 kPa | 832
